From the NIST ThermoML archive (doi:10.1021/je050010l)

Columns and labels:
[1] = xn = mol fraction of the nth substance listed; conditions: 100.8 kPa, Liquid; for viscosity: Capillary tube (Ostwald / Ubbelohde) method
[2] = refractive index (Na D-line) (dimensionless); xn = mol fraction of the nth substance listed; conditions: 100.8 kPa, Liquid, Standard Abbe refractometry

CC(C)CC(C)(C)C [2,2,4-trimethylpentane] + CCO
Conditions	mass density, 288.15 K [kg/m3]	mass density, 298.15 K [kg/m3]	mass density, 308.15 K [kg/m3]	refractive index, 288.15 K	refractive index, 298.15 K	refractive index, 308.15 K	viscosity, 288.15 K [mPa·s]	viscosity, 298.15 K [mPa·s]	viscosity, 308.15 K [mPa·s]
[1], x2 = 0	695.95	687.74	679.41	–	–	–	0.537	0.48	0.432
[1], x2 = 0.0502	697.2	688.84	680.36	–	–	–	0.532	0.473	0.424
[1], x2 = 0.1	698.76	690.33	681.76	–	–	–	0.535	0.476	0.426
[1], x2 = 0.15	700.55	692.11	683.52	–	–	–	0.542	0.48	0.429
[1], x2 = 0.2	702.53	694.07	685.43	–	–	–	0.551	0.487	0.434
[1], x2 = 0.25	704.71	696.21	687.56	–	–	–	0.564	0.497	0.441
[1], x2 = 0.3	707.1	698.57	689.88	–	–	–	0.58	0.51	0.451
[1], x2 = 0.35	709.71	701.17	692.45	–	–	–	0.601	0.526	0.462
[1], x2 = 0.4	712.6	704.03	695.3	–	–	–	0.625	0.543	0.476
[1], x2 = 0.45	715.8	707.2	698.44	–	–	–	0.652	0.565	0.492
[1], x2 = 0.5	719.31	710.68	701.91	–	–	–	0.682	0.588	0.51
[1], x2 = 0.55	723.22	714.59	705.8	–	–	–	0.718	0.615	0.531
[1], x2 = 0.6	727.55	718.9	710.11	–	–	–	0.755	0.645	0.554
[1], x2 = 0.65	732.37	723.73	714.93	–	–	–	0.797	0.677	0.58
[1], x2 = 0.7	737.81	729.14	720.34	–	–	–	0.843	0.715	0.609
[1], x2 = 0.75	743.99	735.34	726.54	–	–	–	0.894	0.755	0.642
[1], x2 = 0.8	751.11	742.37	733.58	–	–	–	0.952	0.801	0.678
[1], x2 = 0.85	759.27	750.54	741.75	–	–	–	1.018	0.854	0.72
[1], x2 = 0.9	768.81	760.17	751.44	–	–	–	1.095	0.915	0.769
[1], x2 = 0.95	780.26	771.59	762.84	–	–	–	1.19	0.991	0.828
[2], x2 = 0	–	–	–	1.39404	1.389	1.38395	–	–	–
[2], x2 = 0.0502	–	–	–	1.39319	1.3881	1.38297	–	–	–
[2], x2 = 0.1	–	–	–	1.39241	1.3873	1.38217	–	–	–
[2], x2 = 0.15	–	–	–	1.39162	1.38651	1.38138	–	–	–
[2], x2 = 0.2	–	–	–	1.39081	1.38569	1.38056	–	–	–
[2], x2 = 0.25	–	–	–	1.38996	1.38485	1.37972	–	–	–
[2], x2 = 0.3	–	–	–	1.38907	1.38397	1.37885	–	–	–
[2], x2 = 0.35	–	–	–	1.38811	1.38304	1.37794	–	–	–
[2], x2 = 0.4	–	–	–	1.38709	1.38204	1.37696	–	–	–
[2], x2 = 0.45	–	–	–	1.38597	1.38099	1.37593	–	–	–
[2], x2 = 0.5	–	–	–	1.38479	1.37984	1.3748	–	–	–
[2], x2 = 0.55	–	–	–	1.3835	1.37858	1.37358	–	–	–
[2], x2 = 0.6	–	–	–	1.38209	1.37722	1.37227	–	–	–
[2], x2 = 0.65	–	–	–	1.38055	1.37573	1.37083	–	–	–
[2], x2 = 0.7	–	–	–	1.37884	1.37408	1.36922	–	–	–
[2], x2 = 0.75	–	–	–	1.37694	1.37225	1.36745	–	–	–
[2], x2 = 0.8	–	–	–	1.37484	1.3702	1.3655	–	–	–
[2], x2 = 0.85	–	–	–	1.37249	1.36792	1.3633	–	–	–
[2], x2 = 0.9	–	–	–	1.36984	1.36536	1.36085	–	–	–
[2], x2 = 0.95	–	–	–	1.36684	1.36248	1.35812	–	–	–

CC(C)=O [acetone] + CCO
Conditions	mass density, 288.15 K [kg/m3]	mass density, 298.15 K [kg/m3]	mass density, 308.15 K [kg/m3]	refractive index, 288.15 K	refractive index, 298.15 K	refractive index, 308.15 K	viscosity, 288.15 K [mPa·s]	viscosity, 298.15 K [mPa·s]	viscosity, 308.15 K [mPa·s]
[1], x1 = 0.05	794.4	785.59	776.66	–	–	–	1.126	0.944	0.793
[1], x1 = 0.1	794.86	785.84	776.66	–	–	–	0.985	0.829	0.703
[1], x1 = 0.15	795.23	786	776.61	–	–	–	0.873	0.741	0.632
[1], x1 = 0.2	795.5	786.08	776.53	–	–	–	0.783	0.669	0.575
[1], x1 = 0.25	795.75	786.16	776.41	–	–	–	0.709	0.61	0.527
[1], x1 = 0.3	795.99	786.23	776.28	–	–	–	0.649	0.561	0.487
[1], x1 = 0.35	796.18	786.24	776.12	–	–	–	0.598	0.521	0.453
[1], x1 = 0.4	796.34	786.23	775.96	–	–	–	0.556	0.486	0.426
[1], x1 = 0.45	796.46	786.21	775.79	–	–	–	0.518	0.457	0.403
[1], x1 = 0.4999	796.57	786.19	775.63	–	–	–	0.488	0.431	0.383
[1], x1 = 0.55	796.68	786.17	775.47	–	–	–	0.461	0.409	0.364
[1], x1 = 0.6	796.77	786.13	775.3	–	–	–	0.438	0.39	0.349
[1], x1 = 0.65	796.84	786.07	775.13	–	–	–	0.418	0.373	0.335
[1], x1 = 0.7	796.86	786	774.96	–	–	–	0.401	0.358	0.322
[1], x1 = 0.75	796.88	785.9	774.77	–	–	–	0.386	0.345	0.312
[1], x1 = 0.8	796.91	785.84	774.59	–	–	–	0.373	0.334	0.303
[1], x1 = 0.8501	796.9	785.73	774.4	–	–	–	0.363	0.325	0.295
[1], x1 = 0.9	796.92	785.66	774.23	–	–	–	0.353	0.317	0.288
[1], x1 = 0.95	796.91	785.57	774.08	–	–	–	0.344	0.309	0.281
[1], x1 = 1	796.87	785.47	773.91	–	–	–	0.334	0.302	0.274
[2], x1 = 0.05	–	–	–	1.36354	1.35919	1.35486	–	–	–
[2], x1 = 0.1	–	–	–	1.3636	1.35915	1.3547	–	–	–
[2], x1 = 0.15	–	–	–	1.36366	1.35909	1.35454	–	–	–
[2], x1 = 0.2	–	–	–	1.36361	1.35899	1.35435	–	–	–
[2], x1 = 0.25	–	–	–	1.36357	1.35887	1.35414	–	–	–
[2], x1 = 0.3	–	–	–	1.3635	1.35873	1.35391	–	–	–
[2], x1 = 0.35	–	–	–	1.36343	1.35857	1.35369	–	–	–
[2], x1 = 0.4	–	–	–	1.36334	1.35842	1.35346	–	–	–
[2], x1 = 0.45	–	–	–	1.36324	1.35826	1.35324	–	–	–
[2], x1 = 0.4999	–	–	–	1.36313	1.35809	1.353	–	–	–
[2], x1 = 0.55	–	–	–	1.36301	1.3579	1.35276	–	–	–
[2], x1 = 0.6	–	–	–	1.36289	1.35771	1.35251	–	–	–
[2], x1 = 0.65	–	–	–	1.36275	1.35753	1.35228	–	–	–
[2], x1 = 0.7	–	–	–	1.36261	1.35734	1.35203	–	–	–
[2], x1 = 0.75	–	–	–	1.36246	1.35713	1.35177	–	–	–
[2], x1 = 0.8	–	–	–	1.3623	1.35692	1.35152	–	–	–
[2], x1 = 0.8501	–	–	–	1.36214	1.35673	1.35127	–	–	–
[2], x1 = 0.9	–	–	–	1.36198	1.35651	1.35102	–	–	–
[2], x1 = 0.95	–	–	–	1.36177	1.35629	1.3508	–	–	–
[2], x1 = 1	–	–	–	1.36152	1.35605	1.35057	–	–	–
